Test results taken from article PMC12209146 (Cellular and Molecular Life Sciences: CMLS, 2025).
Read-outs that look alike come from different tables or passages of the source. No end group written: not given here.

Experiments:
[1] = tested on: zebrafish embryos; details: in vivo; cited from earlier work
[2] = target: T1, TcdB (Clostridioides difficile, UniProt P18177); details: 100 µM peptide, 200 pM TcdB, added simultaneously, FCS-free medium, 7 h, 37 °C; n = 9
Target sequence in this assay (P18177 2-2366 limits assumed): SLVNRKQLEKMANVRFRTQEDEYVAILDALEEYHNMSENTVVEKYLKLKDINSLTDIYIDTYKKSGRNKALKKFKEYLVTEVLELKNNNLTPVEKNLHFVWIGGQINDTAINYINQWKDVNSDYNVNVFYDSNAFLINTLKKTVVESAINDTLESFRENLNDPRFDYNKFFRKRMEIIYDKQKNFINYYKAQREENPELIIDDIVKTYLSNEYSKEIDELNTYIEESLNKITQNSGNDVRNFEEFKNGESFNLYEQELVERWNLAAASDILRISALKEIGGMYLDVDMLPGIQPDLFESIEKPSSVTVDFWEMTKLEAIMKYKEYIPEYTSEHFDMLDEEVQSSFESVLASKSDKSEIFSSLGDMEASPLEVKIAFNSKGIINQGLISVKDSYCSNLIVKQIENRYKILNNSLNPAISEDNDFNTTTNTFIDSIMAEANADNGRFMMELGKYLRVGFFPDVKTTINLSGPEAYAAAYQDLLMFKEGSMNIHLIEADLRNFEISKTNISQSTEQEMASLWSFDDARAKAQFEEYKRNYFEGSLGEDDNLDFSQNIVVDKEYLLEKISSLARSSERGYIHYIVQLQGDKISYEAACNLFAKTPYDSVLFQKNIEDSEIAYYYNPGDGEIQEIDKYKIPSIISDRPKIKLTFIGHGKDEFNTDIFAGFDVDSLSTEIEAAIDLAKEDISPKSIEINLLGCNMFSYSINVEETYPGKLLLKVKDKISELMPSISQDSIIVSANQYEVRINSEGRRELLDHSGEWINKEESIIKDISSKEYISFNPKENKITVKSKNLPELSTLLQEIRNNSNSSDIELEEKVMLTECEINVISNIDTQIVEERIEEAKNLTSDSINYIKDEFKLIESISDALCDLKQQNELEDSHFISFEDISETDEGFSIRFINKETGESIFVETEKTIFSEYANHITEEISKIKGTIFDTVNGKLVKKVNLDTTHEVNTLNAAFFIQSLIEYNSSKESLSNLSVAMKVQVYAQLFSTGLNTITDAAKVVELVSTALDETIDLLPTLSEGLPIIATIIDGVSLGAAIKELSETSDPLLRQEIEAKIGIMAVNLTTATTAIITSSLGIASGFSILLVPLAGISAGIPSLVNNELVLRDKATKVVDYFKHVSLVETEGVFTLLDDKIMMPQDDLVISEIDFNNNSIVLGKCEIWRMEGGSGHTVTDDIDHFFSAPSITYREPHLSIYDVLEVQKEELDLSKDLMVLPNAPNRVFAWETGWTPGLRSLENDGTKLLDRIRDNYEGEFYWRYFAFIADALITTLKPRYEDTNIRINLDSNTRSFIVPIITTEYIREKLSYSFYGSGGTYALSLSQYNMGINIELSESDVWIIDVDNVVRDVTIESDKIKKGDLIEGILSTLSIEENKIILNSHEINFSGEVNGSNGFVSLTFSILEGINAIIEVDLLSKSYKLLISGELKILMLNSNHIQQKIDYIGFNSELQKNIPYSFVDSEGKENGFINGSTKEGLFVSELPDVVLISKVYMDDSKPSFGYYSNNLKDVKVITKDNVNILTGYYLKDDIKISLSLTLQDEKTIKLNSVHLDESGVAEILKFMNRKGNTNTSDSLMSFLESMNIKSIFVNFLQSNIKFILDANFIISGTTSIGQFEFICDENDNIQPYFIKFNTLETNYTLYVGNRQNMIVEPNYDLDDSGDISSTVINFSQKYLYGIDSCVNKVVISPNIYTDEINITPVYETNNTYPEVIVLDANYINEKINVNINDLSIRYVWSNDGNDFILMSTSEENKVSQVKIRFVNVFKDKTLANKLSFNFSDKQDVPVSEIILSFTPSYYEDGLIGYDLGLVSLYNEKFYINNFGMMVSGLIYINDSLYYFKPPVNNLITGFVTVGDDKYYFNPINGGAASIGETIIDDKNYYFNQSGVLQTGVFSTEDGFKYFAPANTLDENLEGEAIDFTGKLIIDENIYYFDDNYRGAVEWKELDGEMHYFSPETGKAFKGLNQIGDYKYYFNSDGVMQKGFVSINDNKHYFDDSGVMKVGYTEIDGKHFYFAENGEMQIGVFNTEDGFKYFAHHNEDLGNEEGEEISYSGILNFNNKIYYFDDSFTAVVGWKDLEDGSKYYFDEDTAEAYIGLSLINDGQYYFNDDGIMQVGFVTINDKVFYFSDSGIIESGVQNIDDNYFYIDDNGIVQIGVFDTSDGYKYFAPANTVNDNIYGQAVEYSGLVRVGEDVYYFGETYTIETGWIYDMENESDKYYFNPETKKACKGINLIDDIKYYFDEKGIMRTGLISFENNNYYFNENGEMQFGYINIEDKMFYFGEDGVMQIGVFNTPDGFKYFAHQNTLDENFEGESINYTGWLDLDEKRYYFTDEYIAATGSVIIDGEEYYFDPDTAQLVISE

[3] = target: T1, TcdB; assay: cell-based
Target sequence in this assay (P18177 2-2366 limits assumed): as above

[4] = in vitro; format: in vitro ADME, human; details: 37 °C
Description: The half-life of Angie 5 in plasma was calculated according to a work by Freisem et al., with minor modifications. A sample (0.5 ml) of human plasma was spiked with 20 µM Angie 5 and incubated at 37 °C. Aliquots (50 µl) were separated at 0, 15, 30, 60, and 120 min, respectively, and mixed with 250 µl 0.1% TFA in acetonitrile at − 20 °C. The mixture was centrifuged at 13,000 rpm for 30 s, and 150 µl of the supernatant was mixed with 150 µl 20% acetic acid in ice. The samples were analyzed with an Axima Confidence MALDI-TOF MS (Shimadzu) in linear mode using exactly the same measurement conditions for all samples spotted on a 384-well plate. Wells were coated with 0.5 µl of 10 mg/ml CHCA previously dissolved in TFA/water/acetonitrile/2-propanol (2.5/47.5/25/25, v/v), and the solvent was allowed to evaporate. Then, each sample (0.5 µl), previously mixed with matrix (0.5 µl), was applied onto the dry pre-coated well, and the solvent was allowed to evaporate. Laser shots were automatically done following a regular circular raster of a diameter of 2000 μm and spacing of 200 μm on each well; 100 profiles were acquired per sample, and 20 shots were accumulated per profile. An accelerating voltage of 20 kV was applied to the ion source. […] The half-life was calculated using GraphPad Prism version 10.3.1 for Windows, GraphPad Software, Boston, Massachusetts USA, www.graphpad.com. […]

[5] = tested on: C. difficile; details: previously shown; cited from earlier work
Description: Here, initially higher concentrations of the Angie peptides were tested and inhibition zones around the Angie peptides and the positive control were measured (Supplementary Fig. 1).

[6] = target: T1, TcdB; details: Angie peptides 100 µM, α-defensin-6 6 µM, TcdB 50 ng in 25 µl PBS, 30 min, 37 °C, supernatant/pellet immunoblot; n = 3-4
Description: For the precipitation analysis, TcdB (50 ng equals 2 ng/µl) and inhibitors, α-defensin-6 (6 µM) and Angie peptides or water (solvent control) were incubated for 30 min in a total volume of 25 µl PBS. Next, the samples were centrifuged for 20 min, 14,000 rpm at 4 °C for separation of supernatant and pellet fraction. […] TcdB was detected using an anti-TcdB antibody (1:1000, Anti-Clostridium difficile Toxin B antibody, Abcam, Cambridge, UK).

## KAINTFIHGNKISIKAI [Angie 1]
[1]
  Toxicity for zebrafish embryos: not toxic

## KDINTFIHGNKRSIKAI [reference Angie]
[2]
  Protection from TcdB-mediated cell rounding, CaCo-2 cells: did not inhibit

## KFINIFIHGNKRSIKAI [Angie 5]
[3]
  IC50: 46.3 µM
[3]; IC50 of TcdB-mediated cell rounding, Vero cells, 10 pM TcdB, no preincubation, 3 h after addition, FCS-free medium, ± SEM 1.08 µM, four-parameter fit
  IC50: 40.9 µM
[2]
  Protection from TcdB-mediated cell rounding, CaCo-2 cells: protected
[4]; fit of signal area vs. time, human plasma, 20 µM, MALDI-TOF
  K of one-phase decay curve in human plasma: 0.1274
[4]; human plasma spiked with 20 µM, aliquots at 0, 15, 30, 60, 120 min, 0.1% TFA in acetonitrile, MALDI-TOF MS peak area, one-phase decay fit, n = 3 per time point
  half-life at 20 µM: 5.44 min

## KGINTFIHGNKRSIKAI [Angie 6]
[2]
  Protection from TcdB-mediated cell rounding, CaCo-2 cells: did not inhibit

## KLINTFIHGNKRSIKAI [Angie 7]
[2]
  Protection from TcdB-mediated cell rounding, CaCo-2 cells: did not inhibit

## LL-37: antimicrobial peptide used as positive control in the radial diffusion assay (Anaspec) (LLGDFFRKSKEKIGKEFKRIVQRIKDFLRNLVPRTES; Antibacterial peptide LL-37; UniProt P49913 134-170, looked up)
[5]
  Activity against C. difficile: activity against C. difficile

## α-defensin-6: human peptide, positive control for precipitation of TcdB (PeptaNova)
[6]
  Precipitate formation with TcdB: precipitate formation
